Results as given in US11091479B2, “Triazolopyridin-3-ones or their salts and pharmaceutical compositions comprising the same” (YUHAN CORPORATION, priority 2018, dated 2021).
Where a name gives a salt, the structure may show the parent alone.

Experiments:
Format in all cases: biochemical
recombinant human VAP-1 = biological target: T1, recombinant human VAP-1 (Homo sapiens, UniProt Q16853); test: Activity on recombinant human VAP-1, HRP-coupled Amplex Red hydrogen peroxide assay, benzylamine substrate; settings: 30 min incubation at 37° C., 1 mM benzylamine, read-out: Inhibitory Activity (IC50, nM) human VAP-1
T1 construct: purchased R&D systems
T1 sequence (Q16853 1-763): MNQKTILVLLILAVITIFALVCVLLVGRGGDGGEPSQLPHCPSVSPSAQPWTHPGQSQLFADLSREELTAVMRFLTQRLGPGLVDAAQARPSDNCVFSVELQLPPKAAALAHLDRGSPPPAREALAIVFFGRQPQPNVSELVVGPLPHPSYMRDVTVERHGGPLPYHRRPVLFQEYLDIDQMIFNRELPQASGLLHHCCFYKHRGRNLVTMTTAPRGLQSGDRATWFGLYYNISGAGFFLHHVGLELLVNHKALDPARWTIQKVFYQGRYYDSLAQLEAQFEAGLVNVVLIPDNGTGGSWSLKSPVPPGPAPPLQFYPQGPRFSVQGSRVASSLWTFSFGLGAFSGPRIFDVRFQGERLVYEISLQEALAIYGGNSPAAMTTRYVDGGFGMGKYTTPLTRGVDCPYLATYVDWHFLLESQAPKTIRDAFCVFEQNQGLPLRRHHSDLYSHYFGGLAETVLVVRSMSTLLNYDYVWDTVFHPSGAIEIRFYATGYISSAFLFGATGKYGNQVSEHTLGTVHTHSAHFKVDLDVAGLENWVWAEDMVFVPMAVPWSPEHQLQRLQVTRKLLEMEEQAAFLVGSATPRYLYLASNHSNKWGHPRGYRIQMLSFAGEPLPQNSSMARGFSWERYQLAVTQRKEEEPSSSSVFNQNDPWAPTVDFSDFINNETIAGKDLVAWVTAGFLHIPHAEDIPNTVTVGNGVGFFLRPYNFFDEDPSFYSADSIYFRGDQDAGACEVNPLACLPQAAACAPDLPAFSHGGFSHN
Procedure, shortened: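 Recombinant human VAP-1 in 50 mM sodium phosphate pH 7.4 preincubated with compound for 30 min at 37 °C, then 1 mM benzylamine, 200 uM Amplex Red and 1 U/mL HRP added. Resorufin fluorescence (ex 544/em 590 nm) followed over 1-2 h; % signal-rate decrease vs DMSO control, 8-point 4-parameter fit for IC50.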

[1] = biological target: T2, recombinant human MAO-A (monoamine oxidase-A) (Homo sapiens, UniProt P21397); test: Activity on recombinant human MAO-A, method similar to VAP-1 assay, 0.5 mM tyramine substrate; settings: read-out: Inhibitory Activity (IC50, nM) MAO-A
T2 construct: purchased Sigma-Aldrich
T2 sequence (P21397 1-527): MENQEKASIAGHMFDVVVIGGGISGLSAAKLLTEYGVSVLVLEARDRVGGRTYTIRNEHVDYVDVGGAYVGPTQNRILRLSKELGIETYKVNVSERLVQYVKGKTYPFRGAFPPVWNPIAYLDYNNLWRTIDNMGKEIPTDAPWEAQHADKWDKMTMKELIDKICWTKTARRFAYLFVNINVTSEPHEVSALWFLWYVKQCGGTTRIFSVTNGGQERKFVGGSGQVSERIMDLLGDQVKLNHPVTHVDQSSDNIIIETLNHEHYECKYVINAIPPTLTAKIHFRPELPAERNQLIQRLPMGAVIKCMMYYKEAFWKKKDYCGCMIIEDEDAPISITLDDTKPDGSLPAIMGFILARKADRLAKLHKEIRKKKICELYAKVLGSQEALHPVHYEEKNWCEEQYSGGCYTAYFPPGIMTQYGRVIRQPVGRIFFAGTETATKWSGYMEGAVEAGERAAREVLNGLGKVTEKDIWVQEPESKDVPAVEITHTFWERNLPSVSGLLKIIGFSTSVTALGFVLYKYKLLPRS
Procedure, shortened: (§1)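 Amplex Red/HRP-coupled H2O2 fluorescence assay run as for VAP-1: enzyme in 50 mM sodium phosphate pH 7.4 preincubated with compound 30 min at 37 °C, then substrate (putrescine for DAO, benzylamine for MAO-B, tyramine for MAO-A) added with 200 uM Amplex Red, 1 U/mL HRP. Signal rate over 1-2 h; IC50 from 4-parameter logistic fit.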

[2] = biological target: T3, recombinant human MAO-B (monoamine oxidase-B) (Homo sapiens, UniProt P27338); test: Activity on recombinant human MAO-B, method similar to VAP-1 assay, 1 mM benzylamine substrate; settings: read-out: Inhibitory Activity (IC50, nM) MAO-B
T3 construct: purchased Sigma-Aldrich
T3 sequence (P27338 1-520): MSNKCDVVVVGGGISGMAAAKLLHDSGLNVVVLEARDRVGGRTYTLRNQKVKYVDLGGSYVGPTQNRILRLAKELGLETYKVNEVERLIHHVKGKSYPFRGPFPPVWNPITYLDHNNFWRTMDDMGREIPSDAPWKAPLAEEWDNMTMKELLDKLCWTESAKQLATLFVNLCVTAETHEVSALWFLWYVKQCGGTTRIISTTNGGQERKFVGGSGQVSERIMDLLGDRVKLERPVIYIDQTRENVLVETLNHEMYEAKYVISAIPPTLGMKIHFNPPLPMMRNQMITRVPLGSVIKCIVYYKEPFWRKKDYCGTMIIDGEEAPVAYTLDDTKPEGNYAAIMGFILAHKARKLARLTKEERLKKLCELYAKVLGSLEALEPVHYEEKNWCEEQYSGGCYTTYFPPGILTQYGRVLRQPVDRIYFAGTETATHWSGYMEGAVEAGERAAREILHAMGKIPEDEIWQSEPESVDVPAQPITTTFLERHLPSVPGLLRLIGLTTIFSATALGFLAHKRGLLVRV
Procedure, shortened: as §1

[3] = biological target: T4, recombinant human DAO (diamine oxidase) (Homo sapiens, UniProt P19801); test: Activity on recombinant human DAO, method similar to VAP-1 assay, 1 mM putrescine substrate; settings: read-out: Inhibitory Activity (IC50, nM) DAO
T4 construct: purchased R&D systems
T4 sequence (P19801 20-751): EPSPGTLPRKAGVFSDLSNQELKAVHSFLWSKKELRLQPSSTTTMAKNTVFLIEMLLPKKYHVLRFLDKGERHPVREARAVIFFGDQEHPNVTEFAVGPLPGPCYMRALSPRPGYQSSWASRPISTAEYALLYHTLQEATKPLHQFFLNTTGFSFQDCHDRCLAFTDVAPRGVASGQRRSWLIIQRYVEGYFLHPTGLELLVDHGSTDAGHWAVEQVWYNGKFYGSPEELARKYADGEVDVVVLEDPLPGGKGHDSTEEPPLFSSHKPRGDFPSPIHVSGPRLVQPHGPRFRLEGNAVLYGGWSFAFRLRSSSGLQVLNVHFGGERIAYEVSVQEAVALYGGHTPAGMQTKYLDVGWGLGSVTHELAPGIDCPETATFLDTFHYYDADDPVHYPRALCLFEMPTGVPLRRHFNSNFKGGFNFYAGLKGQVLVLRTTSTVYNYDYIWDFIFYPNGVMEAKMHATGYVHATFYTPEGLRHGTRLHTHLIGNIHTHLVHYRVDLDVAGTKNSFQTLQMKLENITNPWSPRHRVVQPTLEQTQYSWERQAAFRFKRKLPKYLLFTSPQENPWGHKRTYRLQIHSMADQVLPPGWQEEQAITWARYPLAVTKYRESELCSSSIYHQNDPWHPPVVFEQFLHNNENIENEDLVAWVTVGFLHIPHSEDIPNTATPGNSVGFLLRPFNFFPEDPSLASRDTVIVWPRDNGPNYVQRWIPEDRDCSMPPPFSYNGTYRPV
Procedure, shortened: as §1

Row | Structure (SMILES) | IC50 (recombinant human VAP-1) | IC50 [1] | IC50 [2] | IC50 [3]
1 | CN1CCOc2cc(C#Cc3ccn4c(=O)n(CC(CN)=C(F)F)nc4c3)ccc21 [Example 63, 2-[2-(aminomethyl)-3,3-difluoro-allyl]-7-[2-(4-methyl-2,3-dihydro-1,4-benzoxazin-7-yl)ethynyl]-[1,2,4]triazolo[4,3-a]pyridin-3-one trifluoroacetate] | 2.2 nM | > 100000 nM | > 100000 nM | 320 nM
2 | NCC(Cn1nc2cc(C#Cc3ccc(N4CCOCC4)nc3)ccn2c1=O)=C(F)F [Example 58, 2-[2-(aminomethyl)-3,3-difluoro-allyl]-7-[2-(6-morpholino-3-pyridyl)ethynyl]-[1,2,4]triazolo[4,3-a]pyridin-3-one trifluoroacetate] | 0.3 nM | > 100000 nM | 5300 nM | 34 nM
3 | NC/C(=C\F)Cn1nc2ccc(-c3ccc4c(c3)OCO4)cn2c1=O [Example 12, 2-[(2E)-2-(aminomethyl)-3-fluoroprop-2-en-1-yl]-6-(1,3-benzodioxol-5-yl)[1,2,4]triazolo[4,3-a]pyridin-3(2H)-one hydrochloride] | 3.4 nM | 14000 nM | < 10 nM | 1.1 nM

Continued, values first:

Row | IC50 (recombinant human VAP-1) | IC50 [1] | IC50 [2] | IC50 [3] | Structure (SMILES)
4 | 1.6 nM | > 100000 nM | 53000 nM | 390 nM | NCC(Cn1nc2cc(-c3ccc(N4CCNCC4)cc3)ccn2c1=O)=C(F)F [Example 49, 2-[2-(aminomethyl)-3,3-difluoro-allyl]-7-(4-piperazin-1-ylphenyl)-[1,2,4]triazolo[4,3-a]pyridin-3-one ditrifluoroacetate]
5 | 0.2 nM | > 100000 nM | 320 nM | 12 nM | Cc1cc(-c2ccn3c(=O)n(CC(CN)=C(F)F)nc3c2)cc2c1NC(=O)CC2 [Example 53, 6-[2-[2-(aminomethyl)-3,3-difluoro-allyl]-3-oxo-[1,2,4]triazolo[4,3-a]pyridin-7-yl]-8-methyl-3,4-dihydro-1H-quinolin-2-one trifluoroacetate]
6 | 0.1 nM | > 100000 nM | 800 nM | 100 nM | CS(=O)(=O)c1ccc(-c2ccn3c(=O)n(CC(CN)=C(F)F)nc3c2)cc1 [Example 48, 2-[2-(aminomethyl)-3,3-difluoro-allyl]-7-(4-methylsulfonylphenyl)-[1,2,4]triazolo[4,3-a]pyridin-3-one trifluoroacetate]
7 | 0.3 nM | 68000 nM | 8.4 nM | 1.1 nM | NC/C(=C\F)Cn1nc2cc(-c3ccc(C(F)(F)F)nc3)ccn2c1=O [Example 30, 2-[(2E)-2-(aminomethyl)-3-fluoroprop-2-en-1-yl]-7-[6-(trifluoromethyl)pyridin-3-yl][1,2,4]triazolo[4,3-a]pyridin-3(2H)-one hydrochloride]
